The results in this text go back to PMC10525438 (2023).

Test [1] concerns h18-U (RNA, rRNA) CUCCGUGCCAGCAGCCGCGGUAAUACGGAG
Nature of the test: CD titration at 265 nm. The following applies: 15 mM KCl, 4 mM MgCl2; 20 mM potassium cacodylate pH 7.0, 30 °C; 5 µM RNA (Methods print a different CD buffer, pH 7.6).

Test [2] deals with h18-Ψ (RNA, rRNA, pseudouridine at 516 (E. coli numbering; residue 6 of the 30-nt model)) CUCCGUGCCAGCAGCCGCGGUAAUACGGAG
In words: CD titration at 265 nm. As to conditions: 15 mM KCl, 4 mM MgCl2; 20 mM potassium cacodylate pH 7.0, 30 °C; 5 µM RNA (Methods print a different CD buffer, pH 7.6).

As to `CN[C@@H]1[C@H](O[C@H]2[C@H](O[C@H]3[C@H](O)[C@@H](O)[C@H](N=C(N)N)[C@@H](O)[C@@H]3N=C(N)N)O[C@@H](C)[C@]2(O)C=O)O[C@@H](CO)[C@H](O)[C@H]1O`, the Kd (as a rule, the free concentration of one partner at which half of the binding sites on the other are occupied at equilibrium, for simple one-to-one binding) in test [1] is on record as 63 ± 1 µM; in test [2], 23 ± 3 µM.
